Results from ChEMBL document CHEMBL4673292, “Design, synthesis and anticancer activity of 2-amidomethoxy-1,4-naphthoquinones and its conjugates with Biotin/polyamine” (Bioorg Med Chem Lett, 2021).
pIC50: −log10 of the molar value.

Experiments:
[1] = system: K562; test: Antiproliferative activity against human K562 cells; assay type: functional, cell-based
[2] = system: T47D; test: Antiproliferative activity against human T47D cells; assay type: functional, cell-based
[3] = system: COLO 205; test: Antiproliferative activity against human COLO205 cells; assay type: functional, cell-based
[4] = Selectivity index, ratio of IC50 for human CCD-18Co cells to IC50 for human K562 cells
[5] = Selectivity index, ratio of IC50 for human CCD-18Co cells to IC50 for human T47D cells
[6] = system: CCD-18Co; test: Cytotoxicity against human CCD-18Co cells; assay type: cell-based
[7] = Selectivity index, ratio of IC50 for human CCD-18Co cells to IC50 for human COLO 205 cells

Compound	pIC50 [1]	pIC50 [2]	pIC50 [3]	Ratio IC50 [4]	Ratio IC50 [5]	pIC50 [6]	Ratio IC50 [7]
CC(C)(C)OC(=O)N1CCN(C(=O)COC2=CC(=O)c3c(O)cccc3C2=O)CC1	5.92	6.10	5.64				
O=C(CCCCC1SCC2NC(=O)NC21)NCCCCCCNC(=O)COC1=CC(=O)c2c(O)cccc2C1=O (centres undefined)	5.96	6.30	5.85	>10	>10	5.04	>10
O=C1NC2CSC(CCCCC(=O)N3CCN(C(=O)COC4=CC(=O)c5ccccc5C4=O)CC3)C2N1 (centres undefined)	5.82	5.92	5.64				
NCCCC(=O)NCCCCNC(=O)COC1=CC(=O)c2c(O)cccc2C1=O.O=C(O)C(F)(F)F.O=C(O)C(F)(F)F	5.77	5.77	5.92	>10	>10	5.08	>10
O=C(CCCCC1SCC2NC(=O)NC21)NCCCCCCNC(=O)COC1=CC(=O)c2ccccc2C1=O (centres undefined)	< 5.00	5.74	< 5.00				
CC(C)(C)OC(=O)NCCCCC(CNC(=O)COC1=CC(=O)c2c(O)cccc2C1=O)NC(=O)OC(C)(C)C (centres undefined)	5.89	5.85	5.51				
CC(C)(C)OC(=O)NCC(CCCCNC(=O)COC1=CC(=O)c2c(O)cccc2C1=O)CNC(=O)CCCCC1SCC2NC(=O)NC21 (racemic)	< 5.00	5.10					
CC(C)(C)OC(=O)NCC(CCCCNC(=O)COC1=CC(=O)c2c(O)cccc2C1=O)NC(=O)OC(C)(C)C (centres undefined)	5.96	5.96	5.80				
CC(C)(C)OC(=O)NCCCCCCNC(=O)COC1=CC(=O)c2ccccc2C1=O	5.17	< 5.00	< 5.00				
O=C(O)C(F)(F)F.O=C1C(OCC(=O)N2CCNCC2)=CC(=O)c2c(O)cccc21	6.30	6.22	6.10	>10	>10	5.05	>10
O=C(CCCCC1SCC2NC(=O)NC21)NCCNC(=O)COC1=CC(=O)c2c(O)cccc2C1=O (centres undefined)		< 5.00	< 5.00				

The next lines start with results.

pIC50 [1]	pIC50 [2]	pIC50 [3]	Compound	Ratio IC50 [4]	Ratio IC50 [5]	pIC50 [6]	Ratio IC50 [7]
6.00	6.52	5.89	CC(C)(C)OC(=O)NCCCCCCNC(=O)COC1=CC(=O)c2c(O)cccc2C1=O	>10	>10	5.14	>10
5.31	5.44	5.36	COC(=O)CCCCCNC(=O)COC1=CC(=O)c2c(O)cccc2C1=O				
6.10	6.22	6.10	NCCCCCCNC(=O)COC1=CC(=O)c2c(O)cccc2C1=O.O=C(O)C(F)(F)F	>10	>10	5.07	>10
5.29	5.21	5.28	NCC(CN)CCCCNC(=O)COC1=CC(=O)c2c(O)cccc2C1=O				
5.64	5.92	5.62	CC(=O)NCCCCCCNC(=O)COC1=CC(=O)c2c(O)cccc2C1=O				
5.24	5.34	< 5.00	CCCCCCCNC(=O)COC1=CC(=O)c2c(O)cccc2C1=O				
< 5.00	5.02	5.14	NCCCCC(CN)CNC(=O)COC1=CC(=O)c2c(O)cccc2C1=O (centres undefined)				
5.96	7.00	5.85	CC(C)(C)OC(=O)NCCNC(=O)COC1=CC(=O)c2c(O)cccc2C1=O				
5.48	5.48	5.55	O=C(COC1=CC(=O)c2c(O)cccc2C1=O)NCCCCCCO				
< 5.00	5.19	< 5.00	NCCCCCCNC(=O)COC1=CC(=O)c2ccccc2C1=O				
5.39	5.55	5.33	NCCNC(=O)COC1=CC(=O)c2c(O)cccc2C1=O				
